In assay [1] the target is T1, human μ-opiate receptor (Homo sapiens, UniProt P35372).
T1 construct: purchased Perkin Elmer, Zaventem, Belgium RB-HOM; host or cells: CHO-K1 cells
Put plainly: Affinity for the human μ-opiate receptor, [3H]-naloxone displacement (SPA) on CHO-K1 receptor membrane preparation. As to conditions: for μ-Opioid receptor affinity (% inhibition at 1 μmol./l): 1 μmol./l test substance; for μ-Opioid receptor affinity (% inhibition at 1 μmol./l) / inhibition at 1 µM: inhibition of specific [3H]-naloxone binding; for inhibition at 1 µM: 1.5 h, read-out: μ-Opioid receptor affinity (% inhibition at 1 μmol./l), 1 μmol./l test substance. It is filed as binding. Here is the method: The receptor affinity for the human μ-opiate receptor was determined in a homogeneous batch on microtitre plates. To that end, serial dilutions of the substances to be tested were incubated for 90 minutes at room temperature with a receptor membrane preparation (15-40 μg of protein/250 μl of incubation batch) of CHO-K1 cells, which express the human μ-opiate receptor (RB-HOM receptor membrane preparation from Perkin Elmer, Zaventem, Belgium), in the presence of 1 nmol./l of the radioactive ligand [^3H]-naloxone (NET719, Perkin Elmer, Zaventem, Belgium) and 1 mg of WGA-SPA beads (wheatgerm agglutinin SPA beads from Amersham/Pharmacia, Freiburg, Germany) in a total volume of 250 μl. The incubation buffer used was 50 mmol./l of Tris-HCl supplemented with 50 μM MgCl2 and 0.05% bovine serum albumin. In order to determine non-specific binding, 100 μmol./l of naloxone were additionally added. When the ninety-minute incubation time was complete, the microtitre plates were centrifuged off for 20 minutes at 1000 g and the radioactivity was measured in a β-counter (Microbeta-Trilux, PerkinElmer, Freiburg, Germany). The percentage displacement of the radioactive ligand from its binding to the human μ-opiate receptor at a concentration of the test substances of 1 μmol./l was determined and stated as the percentage inhibition of specific binding. […] Ki values for the test substances were obtained by conversion by means of the Cheng-Prusoff equation (Cheng and Prusoff 1973).

Assay [2] has as its target 5-HT reuptake (Rattus norvegicus, UniProt P31652). Put plainly: biochemical. Particulars: for inhibition at 10 µM: read-out: Inhibition of 5-HT reuptake (% inhibition at 10 μmol./l), 10 μmol./l. An excerpt:
In order to be able to carry out these in vitro studies, synaptosomes were freshly isolated from areas of rat brain. […] For NA reuptake, these vesicular particles were isolated from the hypothalamus of male rat brains, and for 5HT reuptake, they were isolated from the medulla+pons region.
The IC50 values were obtained with the aid of the “Figure P” computer program (Version 6.0, Biosoft, Cambridge, England). […] The “Ligand” computer program (Version 4, Biosoft, England) was used to show KD values.

For assay [3], the target named is T2, NA reuptake (Rattus norvegicus, UniProt Q63380).
T2 construct: isolated from the hypothalamus of male rat brains; from tissue; host or cells: rat brain synaptosomes (P2 fraction), hypothalamus of male rats
T2 sequence (Q63380 1-617): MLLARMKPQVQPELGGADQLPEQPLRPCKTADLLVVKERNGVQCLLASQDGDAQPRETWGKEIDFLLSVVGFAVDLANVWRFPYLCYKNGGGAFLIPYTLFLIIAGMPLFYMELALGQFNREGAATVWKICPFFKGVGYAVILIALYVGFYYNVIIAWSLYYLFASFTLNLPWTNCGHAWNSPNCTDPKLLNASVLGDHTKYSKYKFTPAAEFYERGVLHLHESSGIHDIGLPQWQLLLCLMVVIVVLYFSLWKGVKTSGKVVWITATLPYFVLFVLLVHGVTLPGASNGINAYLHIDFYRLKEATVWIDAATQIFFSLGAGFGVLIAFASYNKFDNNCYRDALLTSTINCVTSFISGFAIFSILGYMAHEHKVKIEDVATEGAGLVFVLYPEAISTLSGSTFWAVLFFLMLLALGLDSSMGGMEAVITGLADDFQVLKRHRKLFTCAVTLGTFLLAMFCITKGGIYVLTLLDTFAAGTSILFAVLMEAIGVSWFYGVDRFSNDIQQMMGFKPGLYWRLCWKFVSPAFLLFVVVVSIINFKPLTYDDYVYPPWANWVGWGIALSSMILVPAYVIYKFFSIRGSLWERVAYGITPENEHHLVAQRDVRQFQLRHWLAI
The assay can be described thus: Inhibition of NA reuptake in rat brain synaptosomes (hypothalamus, P2 fraction). It counts as biochemical. Particulars: for inhibition at 10 µM: 10 μmol./l. Here is the method: In order to be able to carry out these in vitro studies, synaptosomes were freshly isolated from areas of rat brain. A so-called “P2” fraction was used in each case, which was prepared exactly according to the procedure of Gray, E. G. and Whittaker, V. P. (1962, J. Anat. […], 79-88). For NA reuptake, these vesicular particles were isolated from the hypothalamus of male rat brains, and for 5HT reuptake, they were isolated from the medulla+pons region.
IC50 values were obtained thereby which can be converted into inhibitor constants (Ki) according to the “Cheng-Prusoff equation” (Cheng, Y. C. and Prusoff, W. H., 1973, Biochem. Pharmacol. 22, 3099-3108). The IC50 values were obtained with the aid of the “Figure P” computer program (Version 6.0, Biosoft, Cambridge, England). Km values were calculated according to Lineweaver, H. and Burk, D. (1934, J. Am. Chem. Soc. 56, 658-666). The “Ligand” computer program (Version 4, Biosoft, England) was used to show KD values.

Assay [4] has as its system rat. The assay can be described thus: Formalin test in the rat (phase 2, chronic pain component). It is filed as in vivo. Particulars: for Inhibition of the nociceptive behaviour versus control (% inhibition): 46.4 mg/kg i.v., phase 2. Here is the method: The formalin test (Dubuisson, D. and Dennis, S. G., 1977, Pain, 4, 161-174) represents a model for acute and chronic pain. By means of a single formalin injection into the dorsal side of a rear paw, a biphase nociceptive reaction was induced in freely mobile test animals; the reaction was assessed by observing three behaviour patterns which are clearly distinguishable from one another. The reaction is two-phase: phase 1=immediate reaction (duration up to 10 minutes; shaking of the paw, licking), phase 2=late reaction (after a rest phase; likewise shaking of the paw, licking; duration up to 60 minutes). The first phase reflects a direct stimulation of the peripheral nocisensors with a high spinal nociceptive input or glutamate release (acute pain phase); the second phase reflects a spinal and peripheral hypersensitisation (chronic pain phase). In the studies presented here, the chronic pain component (phase 2) was evaluated.
Formalin was administered subcutaneously in a volume of 50 μl and a concentration of 5% into the dorsal side of the right rear paw of each animal. The specific behavioural changes, such as lifting and shaking of the paw, weight shifting of the animal and biting and licking reactions, were observed and recorded over an observation period of from 21 to 27 minutes after the formalin injection. The various behaviours were combined to give the so-called pain rate (PR) which, based on 3-minute intervals, represents the calculation of a mean nociceptive reaction. The PR was calculated on the basis of a numerical weighting (=in each case factor 1, 2, 3) of the observed behaviours (corresponding to behaviour score 1, 2, 3) and was calculated using the following formula:
The size of the group was 10 animals (n=10).
On the basis of the PR calculations, the activity of the substance was determined in percent as the change relative to a control. The ED50 was determined by means of regression analysis.

Where [5] appears, read: Cheng-Prusoff from IC50, [3H]-naloxone 1 nmol./l, read-out: μ-Opioid receptor affinity, Ki.
The mark [6] stands for this setting: rat synaptosomes, Cheng-Prusoff.

Like-named read-outs stand apart in the source and are kept apart here.

T1 sequence (P35372 whole entry): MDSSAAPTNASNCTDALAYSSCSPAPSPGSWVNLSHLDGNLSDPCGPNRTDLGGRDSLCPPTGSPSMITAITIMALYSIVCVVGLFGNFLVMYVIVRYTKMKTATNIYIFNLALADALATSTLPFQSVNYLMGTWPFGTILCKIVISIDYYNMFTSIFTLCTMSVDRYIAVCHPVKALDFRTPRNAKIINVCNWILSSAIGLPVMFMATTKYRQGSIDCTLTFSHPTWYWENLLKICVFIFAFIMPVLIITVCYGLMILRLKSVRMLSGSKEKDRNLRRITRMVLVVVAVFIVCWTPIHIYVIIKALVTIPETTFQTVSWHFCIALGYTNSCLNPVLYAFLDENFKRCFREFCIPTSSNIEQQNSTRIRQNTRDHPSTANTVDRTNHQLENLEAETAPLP
Sequence of 5-HT reuptake (P31652 whole entry): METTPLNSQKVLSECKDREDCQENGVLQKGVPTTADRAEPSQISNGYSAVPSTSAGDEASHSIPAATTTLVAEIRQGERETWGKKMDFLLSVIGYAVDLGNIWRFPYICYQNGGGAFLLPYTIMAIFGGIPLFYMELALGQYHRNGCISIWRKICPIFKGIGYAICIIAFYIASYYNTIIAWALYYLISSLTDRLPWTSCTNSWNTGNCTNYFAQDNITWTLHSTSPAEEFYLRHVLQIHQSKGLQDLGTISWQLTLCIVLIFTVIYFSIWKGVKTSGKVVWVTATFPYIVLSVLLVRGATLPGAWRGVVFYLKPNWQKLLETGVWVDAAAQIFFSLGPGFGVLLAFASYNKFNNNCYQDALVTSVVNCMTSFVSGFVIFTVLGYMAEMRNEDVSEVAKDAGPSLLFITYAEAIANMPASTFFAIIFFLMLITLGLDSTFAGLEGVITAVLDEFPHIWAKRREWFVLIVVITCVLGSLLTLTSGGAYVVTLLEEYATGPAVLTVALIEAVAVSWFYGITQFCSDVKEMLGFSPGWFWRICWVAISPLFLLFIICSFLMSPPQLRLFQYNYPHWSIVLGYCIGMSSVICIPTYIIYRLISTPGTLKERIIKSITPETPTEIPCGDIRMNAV

As to `CN(C)CC1Cc2ccccc2C1(O)c1cccnc1` (single isomer, unassigned) [Example 1, 2-dimethylaminomethyl-1-pyridin-3-yl-indan-1-ol], in assay [1], the “μ-Opioid receptor affinity (% inhibition at 1 μmol./l)” value came to 1%. In addition, the “Inhibition of 5-HT reuptake (% inhibition at 10 μmol./l)” value in assay [2] (rat synaptosomes) is listed as 63%. In addition, the inhibition at 10 µM in assay [3] stood at 33%.
With `CN(C)CC1Cc2ccccc2C1(O)c1cccnc1` (single isomer, unassigned) [Example 2, 2-dimethylaminomethyl-1-pyridin-3-yl-indan-1-ol], the “μ-Opioid receptor affinity (% inhibition at 1 μmol./l)” value in assay [1] came to 60%. Also, the “Inhibition of 5-HT reuptake (% inhibition at 10 μmol./l)” value in assay [2] (rat synaptosomes) came to 89%. For the same molecule, the “Inhibition of NA reuptake (% inhibition at 10 μmol./l)” value in assay [3] worked out at 43%. In addition, the “Inhibition of the nociceptive behaviour versus control (% inhibition)” value in assay [4] is −80.6%.
Turning to `CNCC[C@H](Oc1cccc2ccccc12)c1cccs1` [Duloxetin, duloxetin, reference compound], the “μ-Opioid receptor affinity (% inhibition at 1 μmol./l)” value in assay [1] was −10%. For the same molecule, the “Inhibition of the nociceptive behaviour versus control, ED50 value” in assay [4] (i.v., phase 2, regression analysis) is given as 1.43 mg/kg.
As to `CN(C)CC1CCc2ccccc2C1(O)c1cccnc1` (stereo not drawn) [Example 8, 2-dimethylaminomethyl-1-pyridin-3-yl-1,2,3,4-tetrahydro-naphthalen-1-ol], the “Inhibition of the nociceptive behaviour versus control (% inhibition)” value in assay [4] is listed as −65.8%.
In the case of `CN(C)CC1CCCc2ccccc2C1(O)c1cccnc1` (stereo not drawn) [Example 11, 6-dimethylaminomethyl-5-pyridin-3-yl-6,7,8,9-tetrahydro-5H-benzocyclohepten-5-ol], the inhibition at 1 µM in assay [1] worked out at 20%. The molecule also came in with an inhibition constant Ki in assay [2] of 28 nM. Besides, the inhibition at 10 µM in assay [3] is 39%.
As to `CN(C)CC1=C(c2cccnc2)c2ccccc2[S+]([O-])CC1` (stereo not drawn) [Example 16, dimethyl-(1-oxo-5-pyridin-3-yl-2,3-dihydro-1H-1λ4-benzo[b]thiepin-4-ylmethyl)-amine], the Ki in assay [1] (setting [5]) came out at 210 nM. Moreover, the values for the inhibition at 10 µM in assay [2] (rat synaptosomes) and in assay [3] were 35% and -2%, respectively.
Regarding `CN(C)CC1CCS(=O)(=O)c2ccccc2C1(O)c1cccnc1` (stereo not drawn) [Example 17, 4-dimethylaminomethyl-1,1-dioxo-5-pyridin-3-yl-2,3,4,5-tetrahydro-1H-1λ6-benzo[b]thiepin-5-ol], the inhibition at 1 µM in assay [1] is -13%. Also, the inhibition at 10 µM in assay [2] (rat synaptosomes) was 57%; in assay [3] it was 19%.
The matching figures for `CN(C)CC1Cc2cc(F)ccc2C1(O)c1cccnc1` (stereo not drawn) [Example 18, 2-dimethylaminomethyl-5-fluoro-1-pyridin-3-yl-indan-1-ol]: -6%, 56% and 29%.
Consider `CN(C)CC1=C(c2cccnc2)c2ccc(F)cc2C1` [Example 19, (6-fluoro-3-pyridin-3-yl-1H-inden-2-ylmethyl)-dimethyl-amine], for which the Ki in assay [1] was found to be 290 nM; in assay [2] (setting [6]), 43 nM. Also, the inhibition at 10 µM in assay [3] amounted to 31%.
Regarding `CN(C)CC1Cc2cc(OC(F)(F)F)ccc2C1(O)c1cccnc1` (stereo not drawn) [Example 20, 2-dimethylaminomethyl-1-pyridin-3-yl-5-trifluoromethoxy-indan-1-ol], the inhibition at 1 µM in assay [1] is -19%. Also, the inhibition at 10 µM was found to be 71% in assay [2] (rat synaptosomes) and 38% in assay [3].
As for `CN(C)CC1=C(c2cccnc2)c2ccc(OC(F)(F)F)cc2C1` [Example 21, dimethyl-(3-pyridin-3-yl-6-trifluoromethoxy-1H-inden-2-ylmethyl)-amine], the inhibition at 1 µM in assay [1] stood at 5%. The Ki in assay [2] (setting [6]) was found to be 430 nM. Further, in assay [3], the inhibition at 10 µM amounted to 14%.
As to `CN(C)CC1Cc2cc(C(F)(F)F)ccc2C1(O)c1cccnc1` (stereo not drawn) [Example 22, 2-dimethylaminomethyl-1-pyridin-3-yl-5-trifluoromethyl-indan-1-ol], the inhibition at 1 µM in assay [1] amounted to 2%. For the same molecule, the inhibition at 10 µM in assay [2] (rat synaptosomes) is 61%; in assay [3] it was 17%.
With `CN(C)CC1=C(c2cccnc2)c2ccc(C(F)(F)F)cc2C1` [Example 23, dimethyl-(3-pyridin-3-yl-6-trifluoromethyl-1H-inden-2-ylmethyl)-amine], in assay [1], the inhibition at 1 µM is -8%. Also, the results for the inhibition at 10 µM in assay [2] (rat synaptosomes) and in assay [3] were 47% and 6%, respectively.
For `CN(C)CC1CCOc2ccccc2C1(O)c1cccnc1` (stereo not drawn) [Example 24, 4-dimethylaminomethyl-5-pyridin-3-yl-2,3,4,5-tetrahydro-benzo[b]oxepin-5-ol] the same measures were 45%, 12% and 9%.
The matching figures for `CN(C)CC1=C(c2cccnc2)c2ccccc2OCC1` [Example 26, dimethyl-(5-pyridin-3-yl-2,3-dihydro-benzo[b]oxepin-4-ylmethyl)-amine]: 37%, 50% and 9%.
Take `CN(C)CC1CSc2ccccc2C1(O)c1cccnc1` (stereo not drawn) [Example 31, 3-dimethylaminomethyl-4-pyridin-3-yl-thiochroman-4-ol]: the inhibition at 10 µM in assay [2] (rat synaptosomes) was -4%; in assay [3] it was 48%.
Take `COc1cccc2c1CCC(CN(C)C)C2(O)c1cccnc1` (stereo not drawn) [Example 36, 2-dimethylaminomethyl-5-methoxy-1-pyridin-3-yl-1,2,3,4-tetrahydro-naphthalen-1-ol]: in assay [1], the “μ-Opioid receptor affinity (% inhibition at 1 μmol./l)” value is reported as −14%. Also, the inhibition at 10 µM in assay [2] (rat synaptosomes) was 33%; in assay [3], 49%.
As for `COc1cccc2c1CCC(CN(C)C)C2(O)c1cccnc1` (stereo not drawn) [Example 37, 2-dimethylaminomethyl-5-methoxy-1-pyridin-3-yl-1,2,3,4-tetrahydro-naphthalen-1-ol], in assay [1], the “μ-Opioid receptor affinity (% inhibition at 1 μmol./l)” value turned out to be 8%. The “Inhibition of 5-HT reuptake (% inhibition at 10 μmol./l)” value in assay [2] (rat synaptosomes) came out at 19%. In addition, the “Inhibition of NA reuptake (% inhibition at 10 μmol./l)” value in assay [3] is 57%.
Turning to `COc1cccc2c1CCC(CN(C)C)=C2c1cccnc1` [Example 38, (5-methoxy-1-pyridin-3-yl-3,4-dihydro-naphthalen-2-ylmethyl)-dimethyl-amine], the Ki was 460 nM in assay [1] (setting [5]) and 370 nM in assay [2] (setting [6]). Also, the inhibition at 10 µM in assay [3] was 34%.
Regarding `CN(C)CC1=C(c2cccnc2)c2cccc(O)c2CC1` [Example 39, 6-dimethylaminomethyl-5-pyridin-3-yl-7,8-dihydro-naphthalen-1-ol], the Ki worked out at 20 nM in assay [1] and 250 nM in assay [2]. Also, the inhibition at 10 µM in assay [3] was found to be 50%.

What is called Ki is a measure of affinity in units of concentration, obtained from inhibition or displacement.

Source of the values: patent US8278338B2 (priority 2004, dated 2012).
